In patent publication US20250213558A1, “T-TYPE CALCIUM CHANNEL MODULATORS COMPRISING A PIPERAZINE OR 1,4-DIAZEPANE CORE AND METHODS OF USE THEREOF” (Praxis Precision Medicines, Inc., priority 2022, published 2025):
pIC50: −log10 of the molar value. Read-outs that look alike come from different tables or passages of the source.

Target: T1, Human Cav3.1 calcium channel (Homo sapiens, UniProt O43497)
T1 construct: expressed in transfected cells; host or cells: HEK-293 natClytin/TASK1+Cav3.1 cell line
Assay: Human Cav3.1 calcium channel patch clamp assay (SyncroPatch 384PE; single point and IC50, voltage dependent block)
Type: cell-based
Settings: for % Inhibition (Single Point Data): Testing Conc 1.25, patch clamp
In short: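 Automated whole-cell patch clamp at room temperature, cells held at −120 mV; 100 ms step to −20 mV (resting block), then 1600 ms at −65 mV and a second −20 mV step (voltage-dependent block), every 15 s. Peak currents averaged over last 3 sweeps; % inhibition relative to nickel-sensitive current.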

[1] = HEK-293 natClytin/TASK1+Cav3.1 cell line
[2] = voltage dependent block (VDB), HEK-293 natClytin/TASK1+Cav3.1 cell line, read-out: Cav3.1 IC50

T1 sequence (O43497 whole entry): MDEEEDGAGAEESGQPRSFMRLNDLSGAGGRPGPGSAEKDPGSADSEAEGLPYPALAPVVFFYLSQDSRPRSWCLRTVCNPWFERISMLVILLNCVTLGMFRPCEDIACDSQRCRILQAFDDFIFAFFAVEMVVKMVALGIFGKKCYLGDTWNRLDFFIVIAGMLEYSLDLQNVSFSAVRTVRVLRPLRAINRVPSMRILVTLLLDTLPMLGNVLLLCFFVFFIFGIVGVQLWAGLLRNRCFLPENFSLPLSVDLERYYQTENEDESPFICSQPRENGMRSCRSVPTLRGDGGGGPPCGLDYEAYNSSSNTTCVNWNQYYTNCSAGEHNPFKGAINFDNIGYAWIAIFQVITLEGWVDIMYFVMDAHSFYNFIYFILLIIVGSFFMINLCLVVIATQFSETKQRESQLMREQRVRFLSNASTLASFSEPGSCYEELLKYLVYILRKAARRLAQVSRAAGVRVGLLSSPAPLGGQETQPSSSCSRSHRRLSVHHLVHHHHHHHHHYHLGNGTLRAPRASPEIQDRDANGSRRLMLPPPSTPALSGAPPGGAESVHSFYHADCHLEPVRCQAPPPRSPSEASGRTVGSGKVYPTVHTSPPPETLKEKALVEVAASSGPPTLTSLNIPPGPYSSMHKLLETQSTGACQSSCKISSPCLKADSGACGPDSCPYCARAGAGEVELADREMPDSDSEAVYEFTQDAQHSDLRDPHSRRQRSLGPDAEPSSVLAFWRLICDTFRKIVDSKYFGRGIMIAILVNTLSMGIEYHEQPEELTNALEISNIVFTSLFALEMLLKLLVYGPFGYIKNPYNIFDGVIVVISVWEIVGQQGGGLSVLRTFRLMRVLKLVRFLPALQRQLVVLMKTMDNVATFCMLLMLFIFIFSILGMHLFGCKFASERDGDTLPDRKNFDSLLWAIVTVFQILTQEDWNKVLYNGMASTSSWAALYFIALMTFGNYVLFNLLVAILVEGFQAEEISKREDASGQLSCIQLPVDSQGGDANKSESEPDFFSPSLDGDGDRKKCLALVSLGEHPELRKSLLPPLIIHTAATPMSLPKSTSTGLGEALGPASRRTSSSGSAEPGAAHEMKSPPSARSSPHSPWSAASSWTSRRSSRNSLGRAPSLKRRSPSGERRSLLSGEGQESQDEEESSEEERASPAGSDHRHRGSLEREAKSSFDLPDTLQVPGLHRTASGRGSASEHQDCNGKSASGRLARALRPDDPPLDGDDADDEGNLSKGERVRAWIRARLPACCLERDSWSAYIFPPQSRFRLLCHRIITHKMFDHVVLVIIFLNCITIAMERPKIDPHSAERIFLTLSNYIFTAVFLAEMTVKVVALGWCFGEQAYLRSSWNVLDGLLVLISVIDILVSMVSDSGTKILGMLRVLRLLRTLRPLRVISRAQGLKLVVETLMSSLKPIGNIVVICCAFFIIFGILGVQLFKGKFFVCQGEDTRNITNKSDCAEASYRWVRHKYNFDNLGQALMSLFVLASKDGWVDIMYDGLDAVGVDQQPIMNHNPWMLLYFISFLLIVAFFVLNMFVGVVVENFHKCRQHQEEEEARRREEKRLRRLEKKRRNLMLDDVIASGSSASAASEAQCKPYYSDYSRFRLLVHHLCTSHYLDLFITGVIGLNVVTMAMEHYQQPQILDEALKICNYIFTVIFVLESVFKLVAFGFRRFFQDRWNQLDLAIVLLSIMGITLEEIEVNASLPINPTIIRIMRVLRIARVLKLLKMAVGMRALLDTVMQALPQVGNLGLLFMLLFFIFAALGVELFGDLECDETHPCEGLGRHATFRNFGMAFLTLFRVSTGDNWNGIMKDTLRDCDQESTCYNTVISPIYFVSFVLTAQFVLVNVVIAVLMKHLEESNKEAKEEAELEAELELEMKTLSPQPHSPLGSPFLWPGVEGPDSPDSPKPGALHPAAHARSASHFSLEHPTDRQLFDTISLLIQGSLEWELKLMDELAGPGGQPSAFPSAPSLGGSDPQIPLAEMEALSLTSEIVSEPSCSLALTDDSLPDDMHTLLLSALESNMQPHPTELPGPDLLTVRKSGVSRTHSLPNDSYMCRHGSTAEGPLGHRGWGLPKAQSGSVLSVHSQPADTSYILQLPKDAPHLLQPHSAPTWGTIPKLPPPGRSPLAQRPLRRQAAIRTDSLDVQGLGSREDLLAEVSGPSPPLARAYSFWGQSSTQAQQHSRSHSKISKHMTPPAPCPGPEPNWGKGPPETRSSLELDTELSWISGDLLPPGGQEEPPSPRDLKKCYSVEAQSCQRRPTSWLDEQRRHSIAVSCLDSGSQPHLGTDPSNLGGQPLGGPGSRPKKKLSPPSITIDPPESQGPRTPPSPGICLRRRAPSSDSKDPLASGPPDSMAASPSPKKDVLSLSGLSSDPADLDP

Structure (SMILES)	% Inhibition (Single Point Data) [1]	pIC50 [2]	pIC50
CC(C)(NC(=O)CN1C2CC1CN(Cc1nc3c(OC(F)F)ccc(F)c3[nH]1)C2)C(F)(F)F [Compound 184]	86.326%	6.70	–
CC(C)(C)NC(=O)CN1C2CCC1CN(Cc1nc3c(Cl)ccc(F)c3[nH]1)C2 [Compound 185, N-tert-butyl-2-[3-[(4-chloro-7-fluoro-1H-benzimidazol-2-yl)methyl]-3,8-diazabicyclo[3.2.1]octan-8-yl]acetamide]	99.412%	–	> 7.11
CC(C)(C)NC(=O)CN1C2CCC1CN(Cc1ncc3ccccc3n1)C2 [Compound 186]	5.7091%	–	–
Cc1ccnc2[nH]c(CN3CC4CCC(C3)N4CC(=O)NC(C)(C)C)nc12 [Compound 187]	46.159%	6.00	–
CC(C)(C)NC(=O)CN1C2CCC1CN(Cc1nc3ccccc3[nH]1)C2 [Compound 188]	75.55%	6.31	–
CC(C)(C)NC(=O)CN1C2CCC1CN(Cc1nc3c(Cl)cccc3[nH]1)C2 [Compound 189]	92.283%	–	> 7.11
Cc1cc(F)cc2[nH]c(CN3CC4CCC(C3)N4CC(=O)NC(C)(C)C)nc12 [Compound 190]	94.944%	6.68	–
CC(C)(C)NC(=O)CN1C2CCC1CN(Cc1nc3c(Cl)cc(C#N)cc3[nH]1)C2 [Compound 191]	97.531%	–	–
COc1cccc2[nH]c(CN3CC4CCC(C3)N4CC(=O)NC(C)(C)C)nc12 [Compound 192]	76.034%	6.48	–
CC(C)(C)NC(=O)CN1C2CCC1CN(Cc1nc3cc(F)cc(Cl)c3o1)C2 [Compound 193]	23.525%	5.66	–
Cc1cccc2[nH]c(CN3CC4CCC(C3)N4CC(=O)NC(C)(C)C)nc12 [Compound 194]	97.438%	–	–
CC(C)(C)NC(=O)CN1C2CCC1CN(CCc1nc3c(Cl)cc(F)cc3[nH]1)C2 [Compound 195]	44.852%	5.94	–
CC(C)(C)NC(=O)CN1C2CCC1CN(Cc1nc(-c3ccccc3)c[nH]1)C2 [Compound 196]	83.677%	–	–
CC(C)(C)NC(=O)CN1C2CCC1CN(Cc1c[nH]c(-c3ccccc3)n1)C2 [Compound 197]	45.013%	5.81	–
Cc1cccc2[nH]c(C(C)N3CC4CCC(C3)N4CC(=O)NC(C)(C)C)nc12 (stereo not drawn) [Compound 198]	71.858%	6.38	–
Cc1cccc2[nH]c(C(C)N3CC4CC(C3)N4CC(=O)NC(C)(C)C)nc12 (stereo not drawn) [Compound 199]	54.078%	6.06	–
CC(c1nc2c(Cl)cc(F)cc2[nH]1)N1CC2CC(C1)N2CC(=O)NC(C)(C)C (stereo not drawn) [Compound 200]	93.175%	–	–
CC(c1nc2c(Cl)cc(F)cc2[nH]1)N1CC2CCC(C1)N2CC(=O)NC(C)(C)C (stereo not drawn) [Compound 201]	95.763%	–	7.07
CC(C)(C)NC(=O)CN1C2CCC1CN(Cc1nc3c(C(F)F)cccc3[nH]1)C2 [Compound 202]	100.89%	–	–
CC(C)(C)NC(=O)CN1C2CCC1CN(Cc1nc3c(C4CC4)cccc3[nH]1)C2 [Compound 203]	94.049%	–	–
Cc1cccc2[nH]c(CN3CC4CC(C3)N4CCC3CCOCC3)nc12 [Compound 204]	3.6634%	–	–
Cc1cc(F)cc2[nH]c(CN3CC4CC(C3)N4CCC3CCOCC3)nc12 [Compound 205]	16.681%	5.33	–
COc1ccc(Cl)c2nc(CN3CC4CC(C3)N4CC(=O)NC(C)(C)C)[nH]c12 [Compound 206]	95.576%	6.81	–
Cc1ccc(F)c2[nH]c(CN3CC4CC(C3)N4CC(=O)NC(C)(C)C)nc12 [Compound 207]	97.657%	6.92	–
COc1cccc(NC(=O)CN2CC3CC(C2)N3CC(=O)NC(C)(C)C)c1 [Compound 208]	51.139%	6.00	–
CC(C)(C)NC(=O)CN1C2CC1CN(c1nc3c(Cl)cc(F)cc3[nH]1)C2 [Compound 209]	24.65%	5.29	–
CC(C)(C)NC(=O)CN1C2CC1CN(C(=O)c1nc3c(Cl)cc(F)cc3[nH]1)C2 [Compound 210]	–	5.72	–

Structure (SMILES)	% Inhibition (Single Point Data) [1]	pIC50 [2]	pIC50
COc1cc(F)cc(NC(=O)CN2CC3CC(C2)N3CC(=O)NC(C)(C)C)c1 [Compound 211]	81.284%	6.63	–
CC(C)(C)NC(=O)CN1C2CC1CN(CC(=O)Nc1cc(F)ccc1Cl)C2 [Compound 213]	27.718%	–	–
Cc1cc(F)cc(NC(=O)CN2CC3CC(C2)N3CC(=O)NC(C)(C)C)c1 [Compound 215]	100%	–	–
CC(C)(C)NC(=O)CN1C2CC1CN(CC(=O)Nc1ccc(F)c(Cl)c1)C2 [Compound 216]	97.034%	–	–
Cc1ccc(Cl)c2nc(CN3CC4CC(C3)N4CC(=O)NC(C)(C)C)[nH]c12 [Compound 217]	100.76%	–	–
COc1ccc(F)cc1NC(=O)CN1CC2CC(C1)N2CC(=O)NC(C)(C)C [Compound 218]	36.544%	5.54	–
CC(C)(C)NC(=O)CN1C2CC1CN(CC(=O)Nc1cc(F)ccc1C#N)C2 [Compound 219]	35.823%	–	–
CC(C)(C)NC(=O)CN1C2CC1CN(CC(=O)Nc1cc(F)cc(C#N)c1)C2 [Compound 220]	80.621%	6.17	–
Cc1ccc(Cl)cc1NC(=O)CN1CC2CC(C1)N2CC(=O)NC(C)(C)C [Compound 221]	48.175%	6.05	–
COc1ccc(F)c(NC(=O)CN2CC3CC(C2)N3CC(=O)NC(C)(C)C)c1 [Compound 222]	52.3%	5.96	–
O=C(CN1CC2CC1CN2CC(=O)NC1(C(F)(F)F)CC1)Nc1cc(F)cc(Cl)c1 (stereo not drawn) [Compound 223]	75.83%	5.90	–
CC(C)(NC(=O)CN1C2CC1CN(CC(=O)Nc1cc(F)cc(OC(F)F)c1)C2)C(F)(F)F [Compound 224]	83.389%	6.80	–
O=C(CN1CC2CC(C1)N2CC(F)(F)C1CCCCC1)Nc1cc(F)cc(Cl)c1 [Compound 226]	39.507%	–	–
O=C(CN1CC2CC1CN2CCNC(=O)C1(C(F)(F)F)CC1)Nc1cc(F)cc(Cl)c1 (stereo not drawn) [Compound 227]	78.995%	6.80	–
O=C(CN1CC2CC1CN2CCNC(=O)C1(C(F)(F)F)CCC1)Nc1cc(F)cc(Cl)c1 (stereo not drawn) [Compound 228]	87.61%	6.62	–
O=C(CN1CC2CC(C1)N2CCNC(=O)C1(C(F)(F)F)CCC1)Nc1cc(F)cc(Cl)c1 [Compound 229]	89.382%	–	–
CC(C)(C(=O)NCCN1C2CC1CN(CC(=O)Nc1cc(F)cc(Cl)c1)C2)C(F)(F)F [Compound 230]	96.987%	–	–
CC(C)(C)NC(=O)CN1CC2CC1CN2CC(=O)Nc1cc(F)cc(OC(F)F)c1 (stereo not drawn) [Compound 231]	95.51%	7.05	–
O=C(CN1CC2CC(C1)N2CCNC(=O)C1(C(F)(F)F)CC1)Nc1cc(F)cc(Cl)c1 [Compound 232]	98.914%	6.86	–
CC(C)(C)NC(=O)CN1CC2CC1CN2CC(=O)Nc1ccc(F)c(Cl)c1 (stereo not drawn) [Compound 233]	83.643%	6.64	–
CC1(NC(=O)CN2CC3CC2CN3CC(=O)Nc2ccc(F)c(Cl)c2)CC1 (stereo not drawn) [Compound 234]	51.647%	5.90	–
CC(C)(NC(=O)CN1CC2CC1CN2CC(=O)Nc1ccc(F)c(Cl)c1)C(F)(F)F (stereo not drawn) [Compound 235]	92.093%	6.65	–
COc1cccc(NC(=O)CN2CC3CC2CN3CCNC(=O)C2(C(F)(F)F)CCC2)c1 (stereo not drawn) [Compound 236]	65.449%	6.27	–
COc1cccc(NC(=O)CN2CC3CC2CN3CCNC(=O)C2(C(F)(F)F)CC2)c1 (stereo not drawn) [Compound 237]	35.987%	–	–
O=C(CN1CC2CC1CN2CC(=O)NC1(C(F)(F)F)CC1)Nc1ccc(F)c(Cl)c1 (stereo not drawn) [Compound 238]	79.048%	–	–
CC1(NC(=O)CN2C3CC2CN(CC(=O)Nc2ccc(F)c(Cl)c2)C3)CC1 [Compound 239]	58.273%	6.23	–
